In US10137212B2, “Tetrahydroxamate chelators of zirconium89 and niobium90 for use in diagnostic applications” (priority 2013, dated 2018):

Key:
Type in all cases: physicochemical
[1] = in vitro stability of ^89Zr complexes in 0.1 M sodium phosphate buffer pH 6.5; conditions: 0.1 M sodium phosphate buffer pH 6.5, 10% DMSO, 37° C.
Protocol: (§1) 10 μL of each ^89Zr complex solution prepared as described above in Example 14 were incubated for 7 days in 40 μL Phosphate-Buffered Saline (PBS) (pH 7.4-10% DMSO) at 20° C., 40 μL sodium phosphate buffer (0.1 M, pH 6.5-10% DMSO) at 37° C., 40 μL human serum at 37° C., or 40 μL 50 mM EDTA (pH 7, 10% DMSO) at 37° C., respectively, and analyzed using the chromatographic system described in the above section after 1 h, 3 h, 1, 2, 3, 4, 5, 6, and 7 days.

[2] = complexation of ligands with ^89Zr, yield by ITLC-SG; conditions: 7.5 nmol ligand, pH 7
Protocol: All solutions described below were prepared with de-ionized water purified through a Chelex column prior to use. Stock solutions of ^89Zr at pH 7 were prepared as follow: to 450 μL of the ^89Zr solution in oxalic acid were added 450 μL of a 1M Na2CO3 solution and the pH was adjusted to 7 by addition of small aliquots of a 0.1 M Na2CO3 or 0.1 M HCl. 450 μL of water containing 3% bovine serum albumin were then added. To 45 μL of stock solution (˜1.3 MBq of ^89Zr in a typical experiment) were added 7.5 nmol (5 μL) of L5, L6, L7, C5, C6, or C7 in DMSO or the natural siderophore desferrioxamine B (DFB) mesylate in de-ionized water. These solutions were incubated at desired temperatures and time of reaction and analyzed by ITLC-SG using a 50 mM EDTA (ethylenediaminetetraacetic acid) solution adjusted to pH=7 in de-ionized water as eluant, and analyzed with a Typhoon 8600 scanner (GE Healthcare) in phosphorimaging mode. The percentage of the activity bound to the ligand after TLC was calculated by converting the TLC scan into a chromatogram and integrating the peak corresponding to the spot at the bottom of the TLC. Activity ratios were averaged out of a minimum of 2 TLCs for each condition. The influence of time and temperature on the complexation yield of ^89Zr by L5, L6, L7, C5, C6 and C7 and DFB is shown in Table 1. […]

[3] = in vitro stability of ^89Zr complexes in 50 mM EDTA (challenge); conditions: pH 7, 37° C.; for ^89Zr remaining complexed after a week: 7 days (n=4), FIG. 13
Protocol: FIG. 13 is a graph illustrating the stability of the ^89Zr-complexes in 50 mM EDTA at pH 7 and 37° C. over 7 days (n=4).
as §1

| SMILES | Fraction of intact complex ([1]; 1 Day) [%] | Fraction of intact complex ([1]; 4 Days) [%] | Fraction of intact complex ([1]; 7 Days) [%] | complexation yield of ^89Zr ([2]; 20° C., 30 min) [%] | complexation yield of ^89Zr ([2]; 20° C., 120 min) [%] | complexation yield of ^89Zr ([2]; 50° C., 30 min) [%] | complexation yield of ^89Zr ([2]; 80° C. (time not given)) [%] | time of release of ~50% of ^89Zr [3] | ^89Zr remaining complexed after a week [3] |
| --- | --- | --- | --- | --- | --- | --- | --- | --- | --- |
| CC(=O)N(O)CCCCCNC(=O)CCC(=O)N(O)CCCCCNC(=O)CCC(=O)N(O)CCCCCN [DFB, desferrioxamine B, reference compound] | 99 | 98 | 98 | >99 | >99 | >99 | >99 | – | – |
| O=C1CCCCCN(O)C(=O)CCCCCN(O)C(=O)CCCCCN(O)C(=O)CCCCCN1O [Ligand C5] | 69 | 46 | 42 | 17 | 22 | 23 | 29 | within the first minutes | nearly none |
| O=C1CCCCCCN(O)C(=O)CCCCCCN(O)C(=O)CCCCCCN(O)C(=O)CCCCCCN1O [Ligand C6] | 89 | 79 | 61 | 77 | 79 | 92 | 92 | a single day | 32±4% |
| O=C1CCCCCCCN(O)C(=O)CCCCCCCN(O)C(=O)CCCCCCCN(O)C(=O)CCCCCCCN1O [Ligand C7] | >99 | 99 | 99 | 92 | >99 | >99 | >99 | – | 87±3% |
| CCCCC(=O)N(O)CCCCCC(=O)N(O)CCCCCC(=O)N(O)CCCCCC(=O)N(O)CCC [Ligand L5] | 93 | 89 | 77 | 60 | 71 | 73 | 87.3 | – | – |
| CCCCCC(=O)N(O)CCCCCCC(=O)N(O)CCCCCCC(=O)N(O)CCCCCCC(=O)N(O)CCC [Ligand L6] | 97 | 94 | 94 | 82 | 95 | 96 | >99 | – | – |
| CCCCCCC(=O)N(O)CCCCCCCC(=O)N(O)CCCCCCCC(=O)N(O)CCCCCCCC(=O)N(O)CCC [Ligand L7] | 99 | 98 | 98 | 88 | >99 | >99 | >99 | – | – |
